{"source": "ChEMBL document CHEMBL4811216", "about": "“Chemotherapy for human schistosomiasis: how far have we come? What's new? Where do we go from here?” (RSC Med Chem, 2020)", "key": {"Schistosoma mansoni [1]": {"system": "Schistosoma mansoni", "experiment": "Antischistosomal activity against Schistosoma mansoni schistosomula incubated for 24 hrs by celltiter-glo reagent based assay", "format": "functional, organism-based"}, "Schistosoma mansoni [2]": {"system": "Schistosoma mansoni", "experiment": "Antischistosomal activity against adult Schistosoma mansoni Puerto-Rican incubated for 7 days by stereomicroscopy", "format": "functional", "conditions": "time 7 day"}, "Schistosoma haematobium [3]": {"system": "Schistosoma haematobium", "experiment": "Antischistosomal activity against Schistosoma haematobium assessed as worm death at 10 uM incubated for 120 hrs relative to control", "format": "functional"}, "Schistosoma mansoni [4]": {"system": "Schistosoma mansoni", "experiment": "Antischistosomal activity against adult Schistosoma mansoni assessed as worm death at 10 uM incubated for 144 hrs relative to control", "format": "functional"}, "[5]": {"target": "T1, Thioredoxin glutathione reductase (Schistosoma mansoni, UniProt Q962Y6)", "T1 sequence (Q962Y6 whole entry)": "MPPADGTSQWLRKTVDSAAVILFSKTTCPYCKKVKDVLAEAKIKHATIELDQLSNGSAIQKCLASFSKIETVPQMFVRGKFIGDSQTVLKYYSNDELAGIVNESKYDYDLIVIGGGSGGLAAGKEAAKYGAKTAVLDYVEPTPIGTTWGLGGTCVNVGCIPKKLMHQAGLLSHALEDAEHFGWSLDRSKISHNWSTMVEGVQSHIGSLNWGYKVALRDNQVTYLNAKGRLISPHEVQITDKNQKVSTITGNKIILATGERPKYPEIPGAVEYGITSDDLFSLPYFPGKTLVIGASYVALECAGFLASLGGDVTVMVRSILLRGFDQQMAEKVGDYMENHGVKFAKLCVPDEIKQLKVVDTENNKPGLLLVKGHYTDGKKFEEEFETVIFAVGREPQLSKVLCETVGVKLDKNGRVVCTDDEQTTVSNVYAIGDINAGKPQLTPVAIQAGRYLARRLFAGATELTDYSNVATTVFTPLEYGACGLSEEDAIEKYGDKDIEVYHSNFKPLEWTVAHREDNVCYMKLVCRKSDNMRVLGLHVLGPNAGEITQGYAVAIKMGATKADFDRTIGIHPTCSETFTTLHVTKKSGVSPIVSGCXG", "experiment": "Inhibition of Schistosoma mansoni thioredoxin glutathione reductase incubated for 30 mins by DTNB assay"}, "Schistosoma mansoni [6]": {"system": "Schistosoma mansoni", "experiment": "Antischistosomal activity against juvenile Schistosoma mansoni assessed as worm death at 10 uM incubated for 72 hrs relative to control", "format": "functional"}, "Schistosoma japonicum [7]": {"system": "Schistosoma japonicum", "experiment": "Antischistosomal activity against Schistosoma japonicum assessed as worm death at 10 uM incubated for 120 hrs relative to control", "format": "functional", "conditions": "for mortality at 10 µM: Schistosoma japonicum"}, "Schistosoma mansoni [8]": {"system": "Schistosoma mansoni", "experiment": "Antischistosomal activity against Schistosoma mansoni Schistosomula assessed as worm death at 10 uM incubated for 24 hrs relative to control", "format": "functional"}, "Schistosoma mansoni [9]": {"system": "Schistosoma mansoni", "experiment": "Antischistosomal activity against Schistosoma mansoni assessed as worm death at 50 uM in presence of red blood cells relative to control", "format": "functional"}, "Schistosoma mansoni [10]": {"system": "Schistosoma mansoni", "experiment": "Antischistosomal activity against Schistosoma mansoni by confocal laser scanning microscopy", "format": "functional, organism-based"}, "Schistosoma mansoni [11]": {"system": "Schistosoma mansoni", "experiment": "Antischistosomal activity against Schistosoma mansoni Schistosomula assessed as worm death at 12.5 uM incubated for 120 hrs relative to control", "format": "functional"}, "Schistosoma mansoni [12]": {"system": "Schistosoma mansoni", "experiment": "Antischistosomal activity against juvenile Schistosoma mansoni assessed as worm death at 12.5 uM incubated for 120 hrs relative to control", "format": "functional"}, "Schistosoma mansoni [13]": {"system": "Schistosoma mansoni", "experiment": "Antischistosomal activity against adult Schistosoma mansoni assessed as worm death at 12.5 uM incubated for 120 hrs relative to control", "format": "functional"}, "Schistosoma japonicum [14]": {"system": "Schistosoma japonicum", "experiment": "Antischistosomal activity against adult Schistosoma japonicum assessed as worm death at 12.5 uM incubated for 120 hrs relative to control", "format": "functional"}, "Schistosoma mansoni [15]": {"system": "Schistosoma mansoni", "experiment": "Antischistosomal activity against Schistosoma mansoni BH assessed as extensive tegumental alteration at 25 uM measured after 24 hrs by light microscopy relative to control", "format": "functional"}, "[16]": {"target": "T2, ATP-diphosphohydrolase 1 (Schistosoma mansoni) (UniProt Q7YTA4)", "T2 sequence (whole entry)": "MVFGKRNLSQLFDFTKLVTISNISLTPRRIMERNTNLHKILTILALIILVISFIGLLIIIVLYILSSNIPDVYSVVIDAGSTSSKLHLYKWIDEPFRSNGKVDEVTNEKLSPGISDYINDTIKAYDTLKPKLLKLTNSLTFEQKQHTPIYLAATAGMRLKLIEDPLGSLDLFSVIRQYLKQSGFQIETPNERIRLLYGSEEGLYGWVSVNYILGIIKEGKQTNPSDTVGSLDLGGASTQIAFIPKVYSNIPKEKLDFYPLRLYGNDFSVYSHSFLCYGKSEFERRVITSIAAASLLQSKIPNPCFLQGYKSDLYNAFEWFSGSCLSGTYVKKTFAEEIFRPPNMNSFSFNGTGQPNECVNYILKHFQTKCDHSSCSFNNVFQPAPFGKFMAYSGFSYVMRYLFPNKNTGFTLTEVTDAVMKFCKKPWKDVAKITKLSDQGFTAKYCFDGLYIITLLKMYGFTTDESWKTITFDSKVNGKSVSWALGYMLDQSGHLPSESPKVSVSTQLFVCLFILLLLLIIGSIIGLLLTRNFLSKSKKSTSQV", "experiment": "Inhibition of Schistosoma mansoni ATPDase1 at 40 uM preincubated for 30 mins followed by addition of ATP/ADP by spectrophotometric method relative to control"}, "Schistosoma mansoni [17]": {"system": "Schistosoma mansoni", "experiment": "Antischistosomal activity against Schistosoma mansoni BH assessed as reduction in motor activity at 25 uM measured after 24 hrs by light microscopy relative to control", "format": "functional", "design": "scale not given: the % may be the effect or the level left"}, "ATP-diphosphohydrolase 1": {"target": "T3, ATP-diphosphohydrolase 1 (Schistosoma mansoni, UniProt Q7YTA4)", "T3 sequence (Q7YTA4 whole entry)": "T2 sequence (whole entry)", "experiment": "Inhibition of Schistosoma mansoni ATPDase1 preincubated for 30 mins followed by addition of ATP/ADP by spectrophotometric method"}, "Schistosoma haematobium [18]": {"system": "Schistosoma haematobium", "experiment": "Antischistosomal activity against Schistosoma haematobium assessed as worm death at 10 uM incubated for 96 hrs relative to control", "format": "functional"}, "Schistosoma mansoni [19]": {"system": "Schistosoma mansoni", "experiment": "Antischistosomal activity against Schistosoma mansoni assessed as worm death at 10 uM incubated for 48 hrs relative to control", "format": "functional"}, "Schistosoma mansoni [20]": {"system": "Schistosoma mansoni", "experiment": "Antischistosomal activity against Schistosoma mansoni assessed as worm death at 10 uM incubated for 72 hrs relative to control", "format": "functional"}, "Schistosoma mansoni [21]": {"system": "Schistosoma mansoni", "experiment": "Antischistosomal activity against Schistosoma mansoni BH assessed as worm death at 50 uM measured after 72 to 120 hrs by inverted optical microscopic method relative to control", "format": "functional", "conditions": "time 72-120 hrs"}, "[22]": {"experiment": "Inhibition of C-terminal His6-tagged Schistosoma mansoni NACE expressed in Pichia pastoris using 1-N6-ethenonicotinamide adenine dinucleotide as substrate by fluorometric assay"}, "[23]": {"experiment": "Inhibition of NACE in Schistosoma mansoni using 1-N6-ethenonicotinamide adenine dinucleotide as substrate incubated for 30 mins by fluorometric assay"}, "Schistosoma mansoni [24]": {"system": "Schistosoma mansoni", "experiment": "Antischistosomal activity against juvenile Schistosoma mansoni assessed as worm death at 10 uM incubated for 120 hrs relative to control", "format": "functional"}, "Schistosoma mansoni [25]": {"system": "Schistosoma mansoni", "experiment": "Antischistosomal activity against adult Schistosoma mansoni assessed as worm death at 10 uM incubated for 120 hrs relative to control", "format": "functional"}, "Schistosoma haematobium [26]": {"system": "Schistosoma haematobium", "experiment": "Antischistosomal activity against Schistosoma haematobium assessed as worm death at 10 uM incubated for 144 hrs relative to control", "format": "functional"}, "Schistosoma mansoni [27]": {"system": "Schistosoma mansoni", "experiment": "Antischistosomal activity against juvenile Schistosoma mansoni assessed as worm death at 10 uM incubated for 24 hrs relative to control", "format": "functional"}}}
{"smiles": "COC1=C(Cc2ccc(OC)cc2)C(=O)C2=C(NCCS2(=O)=O)C1=O", "values": [{"measurement": "IC50", "setting": "Schistosoma mansoni [1]", "result": 13900, "unit": "nM"}, {"measurement": "Activity", "setting": "Schistosoma mansoni [2]", "result": 100, "unit": "%"}]}
{"smiles": "O=[N+]([O-])c1ccc2c(c1)S(=O)(=O)C=C2", "values": [{"measurement": "mortality at 10 µM", "setting": "Schistosoma haematobium [3]", "result": 85, "unit": "%"}, {"measurement": "mortality at 10 µM", "setting": "Schistosoma mansoni [4]", "result": 76, "unit": "%"}, {"measurement": "IC50", "setting": "[5]", "result": 2010, "unit": "nM"}, {"measurement": "mortality at 10 µM", "setting": "Schistosoma mansoni [6]", "result": 100, "unit": "%"}, {"measurement": "mortality at 10 µM", "setting": "Schistosoma japonicum [7]", "result": 69, "unit": "%"}, {"measurement": "mortality at 10 µM", "setting": "Schistosoma mansoni [8]", "result": 100, "unit": "%"}]}
{"smiles": "CC1=C(Cc2ccc(C(F)(F)F)cc2)C(=O)c2cc(C)cnc2C1=O", "values": [{"measurement": "Activity", "setting": "Schistosoma mansoni [9]", "result": 100, "unit": "%"}]}
{"smiles": "COc1cc(/C=N/NC(=O)c2ccc(C(C)(C)C)cc2)ccc1O", "values": [{"measurement": "IC50", "setting": "Schistosoma mansoni [10]", "result": 47900, "unit": "nM"}]}
{"smiles": "CCOC(=O)C(C(=O)OCC)C1=C(Br)C2=NOC3c4ccccc4C(=O)C(=C1)C23", "note": "(stereo not given)", "values": [{"measurement": "IC50", "setting": "[5]", "result": 140, "unit": "nM"}, {"measurement": "mortality at 12.5 µM", "setting": "Schistosoma mansoni [11]", "result": 96, "unit": "%"}, {"measurement": "mortality at 12.5 µM", "setting": "Schistosoma mansoni [12]", "result": 100, "unit": "%"}, {"measurement": "mortality at 12.5 µM", "setting": "Schistosoma mansoni [13]", "result": 28, "unit": "%"}, {"measurement": "mortality at 12.5 µM", "setting": "Schistosoma japonicum [14]", "result": 100, "unit": "%"}]}
{"smiles": "COc1cc(O)cc(O)c1C(=O)/C=C/c1ccccc1", "note": "[CARDAMOMIN]", "values": [{"measurement": "Activity", "setting": "Schistosoma mansoni [15]", "result": 100, "unit": "%"}, {"measurement": "inhibition", "setting": "[16]", "result": 82, "unit": "%"}, {"measurement": "Activity", "setting": "Schistosoma mansoni [17]", "result": 100, "unit": "%"}, {"measurement": "IC50", "setting": "ATP-diphosphohydrolase 1", "result": 23500, "unit": "nM"}]}
{"smiles": "O=c1c(Cl)c(-n2cc(CO)nn2)cnn1-c1ccccc1", "values": [{"measurement": "Activity", "setting": "Schistosoma haematobium [18]", "result": 100, "unit": "%"}, {"measurement": "IC50", "setting": "[5]", "result": 2840, "unit": "nM"}, {"measurement": "Activity", "setting": "Schistosoma japonicum [7]", "result": 70, "unit": "%"}, {"measurement": "mortality at 10 µM", "setting": "Schistosoma mansoni [8]", "result": 100, "unit": "%"}, {"measurement": "Activity", "setting": "Schistosoma mansoni [19]", "result": 100, "unit": "%"}, {"measurement": "Activity", "setting": "Schistosoma mansoni [20]", "result": 100, "unit": "%"}]}
{"smiles": "O=C1CS/C(=N\\N=C/c2cccc3c2OCO3)N1c1ccc(Br)cc1", "values": [{"measurement": "Activity", "setting": "Schistosoma mansoni [21]", "result": 83.3, "unit": "%"}]}
{"smiles": "O=C(Nc1nc(=O)c2ccccc2s1)c1ccco1", "values": [{"measurement": "IC50", "setting": "[22]", "result": 2200, "unit": "nM"}, {"measurement": "IC50", "setting": "[23]", "result": 20000, "unit": "nM"}]}
{"smiles": "COC(=O)CS(=O)(=O)c1nnc(C(Cc2ccccc2)NC(=O)OC(C)(C)C)o1", "note": "(stereo not given)", "values": [{"measurement": "mortality at 10 µM", "setting": "Schistosoma mansoni [24]", "result": 39, "unit": "%"}, {"measurement": "IC50", "setting": "[5]", "result": 330, "unit": "nM"}, {"measurement": "mortality at 10 µM", "setting": "Schistosoma japonicum [7]", "result": 65, "unit": "%"}, {"measurement": "mortality at 10 µM", "setting": "Schistosoma mansoni [25]", "result": 62, "unit": "%"}, {"measurement": "mortality at 10 µM", "setting": "Schistosoma haematobium [26]", "result": 67, "unit": "%"}, {"measurement": "mortality at 10 µM", "setting": "Schistosoma mansoni [8]", "result": 99, "unit": "%"}]}
{"smiles": "CCN(c1ccccc1)S(=O)(=O)c1ccc(NC(=O)c2nc(S(C)(=O)=O)ncc2Cl)cc1", "values": [{"measurement": "mortality at 10 µM", "setting": "Schistosoma haematobium [3]", "result": 94, "unit": "%"}, {"measurement": "IC50", "setting": "[5]", "result": 210, "unit": "nM"}, {"measurement": "mortality at 10 µM", "setting": "Schistosoma japonicum [7]", "result": 50, "unit": "%"}, {"measurement": "mortality at 10 µM", "setting": "Schistosoma mansoni [25]", "result": 78, "unit": "%"}, {"measurement": "mortality at 10 µM", "setting": "Schistosoma mansoni [27]", "result": 100, "unit": "%"}, {"measurement": "mortality at 10 µM", "setting": "Schistosoma mansoni [8]", "result": 100, "unit": "%"}]}
